The values that follow come from ChEMBL document CHEMBL1201862, “PubChem BioAssay data set” (2004).

Test systems include LXFL 529; DLD-1; XF498; KM-20L2; RXF 631; HOP-18; Hs-578T; T47D; BT-549.
Test in all cases: inhibition of tumour cell growth, NCI panel, 48 h

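Growth conditions: 96-well plates. Treatment: test compound, 48 hours, 5 concentrations. Analysis: linear interpolation between bracketing concentrations; unreached endpoints set to highest concentration. GI50 = concentration required for 50% inhibition of growth.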 Activity calls are given as the source filed them. No stated cut-off is given here; in the data, active = GI50 up to about 1.1 µM and inactive = higher.

On to `CCOC(=O)C(=O)Nc1c(N(CC)CC)n2ccccc2nc1=O`, for which the GI50 with LXFL 529, with DLD-1, in the test with XF498, with KM-20L2 and with RXF 631 was > 100 µM (inactive) throughout.
Consider `O=C(Nc1ccc(Cl)cc1)/C(Cc1cccc[n+]1[O-])=N\Nc1ccc([N+](=O)[O-])cc1[N+](=O)[O-]`, for which the GI50 in the test with LXFL 529, in the test with DLD-1, in the test with KM-20L2 and with RXF 631 was > 100 µM (inactive) each time.
On to `CN(C)/C=N\c1cc[nH]c(=O)n1`, for which the GI50 with LXFL 529, with HOP-18, in the test with DLD-1, in the test with XF498, in the test with KM-20L2 and in the test with RXF 631 was > 100 µM (inactive) each time.
For `COc1cc([C@H]2c3cc4c(cc3O[C@@]3(O)COC(=O)[C@@H]23)OCO4)cc(OC)c1OC`, the GI50 in the test on HOP-18, in the test with DLD-1, in the test on XF498, in the test on Hs-578T, in the test with KM-20L2 and in the test on RXF 631 was > 100 µM (inactive) each time. Moreover, the GI50 with T47D is > 100 µM (inactive).
Consider `Cc1ccc(NC(=O)/C(=N/NC(=O)C[N+](C)(C)C)c2nc3ccccc3nc2O)cc1`, for which the GI50 with LXFL 529, in the test with HOP-18, with DLD-1, with KM-20L2 and with RXF 631 was > 100 µM (inactive) each time.
As for `CC(=O)OCC1OC(Sc2ccccn2)C=CC1OC(C)=O` (configuration not stated), the GI50 in the test with LXFL 529, with HOP-18, in the test with DLD-1, with XF498 and with KM-20L2 was > 100 µM (inactive) throughout.
As to `CCCCCCC1CCC2CCCC(C)N12` (configuration not stated), the GI50 is > 10 µM (inactive) with LXFL 529, 29.2 µM (inactive) with HOP-18, 19.4 µM (inactive) in the test with XF498 and 25.2 µM (inactive) with KM-20L2.
Consider `On1c(-c2ccccc2)c(-c2ccccc2N2CCCC2)c2ccccc21`, for which the GI50 with HOP-18, in the test with DLD-1, with XF498 and in the test with KM-20L2 was > 100 µM (inactive) each time.
As to `CC(=O)OC(C)(C)C1CCC(C)(C(O)COc2ccc(CCNC(=O)c3ccccc3)cc2)O1` (configuration not stated), the GI50 is 25.1 µM (inactive) in the test on LXFL 529; > 100 µM (inactive) with HOP-18; 31.5 µM (inactive) in the test with DLD-1; 10.5 µM (inactive) with XF498; 73.1 µM (inactive) in the test on KM-20L2.
Turning to `C=CC1=C(C)/C(=C/C2=NC(=C\c3[nH]c(CC4NC(=O)C(C)/C4=C\C)c(C)c3CCC(=O)O)/C(CC(=O)O)=C2C)NC1=O` (configuration not stated), the GI50 in the test on LXFL 529, in the test on HOP-18, in the test on DLD-1, in the test with XF498, with KM-20L2 and in the test on RXF 631 was > 100 µM (inactive) each time.
In the case of `Cc1ccccc1-n1c(=S)[nH]c2c(sc(=O)n2-c2ccccc2C)c1=O`, the GI50 in the test on LXFL 529, in the test with HOP-18, in the test on DLD-1, with KM-20L2 and with RXF 631 was > 100 µM (inactive) each time.
As to `Cc1ccc(NC(=O)CC2C(=O)Nc3ccccc3S2(=O)=O)cc1C` (configuration not stated), the GI50 with LXFL 529, in the test on DLD-1, with XF498, with KM-20L2 and with RXF 631 was > 100 µM (inactive) throughout.
On to `COC(=O)/C(=C/c1ccc(OC)cc1)C(C(=O)O)=C1CCCCC1`, for which the GI50 in the test on LXFL 529, with DLD-1, in the test on XF498, in the test with KM-20L2 and in the test on RXF 631 was > 100 µM (inactive) in each case.
`O=C1C2ON3c4ccccc4C(=O)C3(c3ccccc3)C2C(=O)N1c1ccccc1` (configuration not stated): the GI50 in the test on LXFL 529, in the test on HOP-18, in the test with DLD-1, in the test on XF498 and in the test on KM-20L2 was > 100 µM (inactive) each time.
In the case of `Cc1c(-c2nnc(-c3ccccc3)o2)c(=O)n(-c2ccccc2)n1C`, the GI50 in the test on LXFL 529, in the test with HOP-18, in the test with DLD-1, in the test on XF498 and in the test on KM-20L2 was > 100 µM (inactive) throughout.
As to `CN1C2(c3ccccc3)c3c(-c4ccccc4)sc(-c4ccccc4)c3C1(c1ccccc1)C1C(=O)N(c3ccccc3)C(=O)C12` (configuration not stated), the GI50 in the test with LXFL 529, in the test on HOP-18, in the test on DLD-1, with XF498, with KM-20L2 and in the test with RXF 631 was > 100 µM (inactive) in each case.
Consider `Brc1ccc(N2C[N+](c3ccc(Br)cc3)=NC(c3ccccc3)=N2)cc1.[O-][Cl+3]([O-])([O-])[O-]`, for which the GI50 with LXFL 529 was 45.2 µM (inactive); in the test on HOP-18 it was > 100 µM (inactive); in the test with DLD-1 it was 59.8 µM (inactive); in the test on XF498, > 100 µM (inactive); with KM-20L2 it was 70.5 µM (inactive).
Consider `COc1cc(-c2[nH]ccc2Cl)oc1C1=C2N=C3C=C2C(C(C)C)C1CCCCCCCC3` (configuration not stated), for which the GI50 with LXFL 529 was 0.515 µM (active); in the test with HOP-18, 0.332 µM (active); with DLD-1, 0.975 µM (active); in the test with XF498 it was 1.38 µM (inactive); in the test on Hs-578T, 0.253 µM (active); in the test on KM-20L2 it was 0.308 µM (active). Besides, the GI50 was 1.1 µM (active) in the test with BT-549 and 0.272 µM (active) in the test on T47D.
In the case of `CC(=O)O[C@H]1C(=O)[C@@]2(C)C(C(OC(=O)c3ccccc3)[C@]3(O)CC(OC(=O)C(O)C(NC(=O)c4ccc(C)cc4)c4ccccc4)C(C)=C1C3(C)C)[C@]1(OC(C)=O)CO[C@@H]1C[C@@H]2O` (some centres not stated), the GI50 in the test with LXFL 529 is 0.00424 µM (active); in the test with DLD-1, 0.0661 µM (active); in the test with XF498 it was < 0.0025 µM (active); in the test on KM-20L2, 0.00305 µM (active).
Turning to `O=c1c(NO)c([N+](=O)[O-])cnn1-c1ccccc1`, the GI50 in the test with LXFL 529 is 1.76 µM (inactive); in the test on HOP-18, 22.1 µM (inactive); in the test on DLD-1, 3.6 µM (inactive); in the test on XF498, 3.41 µM (inactive); in the test on Hs-578T it was < 0.01 µM (active); in the test on KM-20L2, 7.19 µM (inactive). In addition, the GI50 in the test with RXF 631 is 2.48 µM (inactive); in the test on BT-549, 1.58 µM (inactive); in the test with T47D, 1.83 µM (inactive).
As to `C=CC1(CC)/C(=N\O)C(CC)(CC)C(=O)N1O` (configuration not stated), the GI50 is > 100 µM (inactive) with LXFL 529, > 100 µM (inactive) in the test on DLD-1, 48.9 µM (inactive) in the test on XF498 and > 100 µM (inactive) in the test with KM-20L2.
Consider `O=c1ccccc2cccc(O)c12`, for which the GI50 in the test on LXFL 529, with HOP-18, in the test with DLD-1, with XF498, in the test on KM-20L2 and in the test with RXF 631 was > 100 µM (inactive) in each case.
Turning to `O=c1ccn([C@H]2CSC[C@@H](CO)C2)c(=O)[nH]1`, the GI50 in the test with LXFL 529, in the test on HOP-18, in the test on DLD-1, with KM-20L2 and in the test with RXF 631 was > 100 µM (inactive) each time.
For `CC(=O)NNc1nc(C)c(C(=O)/C=C/c2ccc(Cl)c(Cl)c2)s1`, the GI50 with HOP-18, with DLD-1, in the test with KM-20L2 and in the test with RXF 631 was > 100 µM (inactive) each time.
As for `COc1ccc(OCC(=O)O)c2c1CCC(C)C2=O` (configuration not stated), the GI50 is 94.6 µM (inactive) in the test on HOP-18; > 100 µM (inactive) in the test with DLD-1; > 100 µM (inactive) with XF498; > 100 µM (inactive) in the test on KM-20L2; > 100 µM (inactive) in the test with RXF 631.
